Columns and labels:
human PPARγ AF1 domain = molecular target: T1, human PPARγ AF1 domain (Homo sapiens, UniProt P37231); test: Surface plasmon resonance, PPARγ AF1 domain; format: binding; conditions: SPR
T1 sequence (P37231 31-135 limits assumed): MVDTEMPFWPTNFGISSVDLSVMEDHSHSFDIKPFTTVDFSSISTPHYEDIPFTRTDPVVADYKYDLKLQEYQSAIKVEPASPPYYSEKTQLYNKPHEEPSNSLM

[1] = LC-MS of GlcCer levels in dorsal striatum of CRS-induced mice; format: in vivo; conditions: intra-dorsal striatum infusion of pioglitazone, GlcCer or combination
Description: The procedure for the extraction of sphingolipids was established according to the LIPID MAPS protocol with modifications. Briefly, dorsal striatal tissues were added 0.5 mL of MeOH, 0.25 mL of CHCl3 and 7.5 μL of internal standards cocktail (2.5 μM). For sphingolipidomics, 5 μL of internal standards mixture (LM6002, Avanti polar lipids) was added. The mixture was then ultrasonicated for 45 s at room temperature and incubation at 48°C overnight. To avoid potentially interfering glycerolipids, 75 μL of KOH in MeOH (1M) was added, followed by incubation in a heat block at 200 rpm for 2 h at 37 °C. After neutralization, a four-step extraction process was performed to obtain SPL extract for analysis. The supernatant was transferred to a new Eppendorf tube and the resides were added l mL of MeOH and 2 mL of CHCl3, followed by centrifugation at 3800 rpm for 8 min. […] Sphingolipidomics were measured with ultra-high-performance liquid chromatography (UPLC) coupled with hybrid Quadrupole-Orbitrap high resolution mass spectrometry (Q-Exactive-HRMS). […] For […] quantitation, brain tissues were quantified by UPLC-MS/MS using a Q-Exactive-HRMS with UPLC. […] Quantification of […] with various fatty acid chain lengths were achieved using the calibration curve of each GlcCer species with closest number of chain length. […]

aged mice = conditions: oral administration, ref [35]; cited from earlier work
PPARγ-LBD = test system: T2, PPARγ-LBD; test: Bio-layer interferometry, PPARγ LBD; format: binding, human; conditions: biolayer interferometry, Figure S7D, E
T2 construct: human PPARγ-LBD (residues 223-505); 6xHis; made in house; host or cells: E. coli BL21 (DE3)
Description: The bio-layer interferometry assay was performed at 30 °C on the Octet RED96 System (ForteBio, USA) with PBS as the running buffer. Purified PPARγ-LBD were biotinylated using the EZ-Link Sulfo-NHS-LC-Biotinylation Kit (Thermo Fisher Scientific, USA) according to the manufacturer's instructions. The biotinylated PPARγ was then immobilized onto SSA Biosensors (ForteBio, USA), pre-equilibrated in the running buffer. The biosensors were incubated with various concentrations of the GlcCer or pioglitazone, followed by dissociation. The data were analyzed and the binding parameters were determined using the software supplied by the manufacturer.

human PPARγ-full length = molecular target: T3, human PPARγ-full length (Homo sapiens, UniProt P37231); test: Surface plasmon resonance, full-length hPPARγ; format: binding; conditions: SPR, steady-state affinity, 25 °C; read-out: equilibrium dissociation constant (KD) for hPPARγ
T3 construct: human PPARγ-full length (Active Motif, USA); purchased Active Motif
T3 sequence (P37231 1-505): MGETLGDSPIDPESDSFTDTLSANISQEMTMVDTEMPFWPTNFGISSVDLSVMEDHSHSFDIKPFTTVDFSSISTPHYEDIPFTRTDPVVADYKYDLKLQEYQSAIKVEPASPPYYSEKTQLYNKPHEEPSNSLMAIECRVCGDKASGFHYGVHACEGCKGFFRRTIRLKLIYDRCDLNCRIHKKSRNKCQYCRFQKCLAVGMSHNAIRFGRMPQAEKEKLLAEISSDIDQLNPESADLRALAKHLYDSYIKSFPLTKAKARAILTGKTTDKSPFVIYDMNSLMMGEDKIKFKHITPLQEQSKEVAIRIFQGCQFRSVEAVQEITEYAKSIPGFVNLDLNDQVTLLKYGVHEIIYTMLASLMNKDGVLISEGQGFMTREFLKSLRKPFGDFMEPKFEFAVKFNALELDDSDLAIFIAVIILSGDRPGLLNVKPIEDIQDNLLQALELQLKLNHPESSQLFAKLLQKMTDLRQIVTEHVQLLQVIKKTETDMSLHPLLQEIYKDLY
Description: Prepared human PPARγ-LBD and human PPARγ-full length (Active Motif, USA) were immobilized onto a CM5 sensor chip using amine coupling. Briefly, the protein was diluted to 50 μg/mL in immobilization buffer and covalently attached to the CM5 chip via an Amine Coupling Kit (Cytiva, USA), following the manufacturer's instructions. A channel without immobilized protein was used as a blank control. The positive control, pioglitazone, and the test molecule, GlcCer, were both diluted in running buffer (PBS containing 5% (v/v) DMSO, 3 mM EDTA, and 0.05% (v/v) surfactant P20, pH 7.4). Gradient concentrations of GlcCer were injected over both channels at a flow rate of 30 μL/min, with an association time and dissociation time of 85 s each.

Glucosylceramide [GlcCer]
Kd (human PPARγ AF1 domain): 29 ± 3 nM | GlcCer levels in the dorsal striatum (LC-MS) [1]: increased | neuroinflammation and memory deficits (aged mice): alleviate | binding affinity for the LBD (BLI) (PPARγ-LBD): minimal binding affinity | Kd (human PPARγ-full length): 36 ± 2 nM

Reference: PMC12775823, “Glucosylceramide regulates depression through activating peroxisome proliferator-activated receptor gamma in dorsal striatum” (Theranostics, 2026)
